Test [1] deals with FB1 23 (DNA, aptamer) ATACCAGCTTATTCAATTGCGGATGCGTAAATGACGATAAACATAGATGGGGTATATCGCGATGCGACAGGGTGTAGATAGTAAGTGCAATCT
Put plainly: magnetic bead binding, percent DNA eluted (fluorescence). The conditions noted are these: 100 mM NaCl, 5 mM KCl, 2 mM MgCl2, 1 mM CaCl2; 20 mM Tris pH 7.6, room temperature; immobilised compound; 9-15 pmol DNA, 2 × 10^8 beads.

Test [2] concerns FB1 16 (DNA, aptamer) ATACCAGCTTATTCAATTCATCCAGTAACAAACACATAAGTAACGGCGATATGTCAAAGCGGTATCGGCTACAGATGAGATAGTAAGTGCAATCT
Described as above. The conditions noted are these: 100 mM NaCl, 5 mM KCl, 2 mM MgCl2, 1 mM CaCl2; 20 mM Tris pH 7.6, room temperature; immobilised compound; 9-15 pmol DNA, 2 × 10^8 beads.

Test [3] deals with FB1 14 (DNA, aptamer) ATACCAGCTTATTCAATTCTATACGGAGTGGATATCGATCTGTAACGTGAGTGAGATAATGTGATGCATAGTCGTGGAGATAGTAAGTGCAATCT
The test is described as above. The conditions noted are these: 100 mM NaCl, 5 mM KCl, 2 mM MgCl2, 1 mM CaCl2; 20 mM Tris pH 7.6, room temperature; immobilised compound; 9-15 pmol DNA, 2 × 10^8 beads.

The subject of test [4] is FB1 32 (DNA, aptamer) ATACCAGCTTATTCAATTAATGTACGATGTGTGGGCAACATGAGTATGTCGTGTGATATCTAGATGAGGTAGCGGTGGAGATAGTAAGTGCAATCT
Described as above. The conditions noted are these: 100 mM NaCl, 5 mM KCl, 2 mM MgCl2, 1 mM CaCl2; 20 mM Tris pH 7.6, room temperature; immobilised compound; 9-15 pmol DNA, 2 × 10^8 beads.

For test [5], the system named is FB1 31 (DNA, aptamer) ATACCAGCTTATTCAATTCGGGGACGTGTATACCAGCTTATTCAATTCACAGTTATGTCCTATACCAGCTTATTCAATTAGATAGTAAGTGCAATCT
The test is described as above. The conditions noted are these: 100 mM NaCl, 5 mM KCl, 2 mM MgCl2, 1 mM CaCl2; 20 mM Tris pH 7.6, room temperature; immobilised compound; 9-15 pmol DNA, 2 × 10^8 beads.

The test system of test [6] is FB1 39 (DNA, aptamer) ATACCAGCTTATTCAATTAATCGCATTACCTTATACCAGCTTATTCAATTACGTCTGCACATACCAGCTTATTCAATTAGATAGTAAGTGCAATCT
Put plainly: magnetic bead binding, fluorescence of eluted DNA. The conditions noted are these: 100 mM NaCl, 5 mM KCl, 2 mM MgCl2, 1 mM CaCl2; 20 mM Tris pH 7.6, room temperature; immobilised compound; aptamer 1 nM to 1 μM.

With `CCCC[C@@H](C)[C@@H](OC(=O)C[C@@H](CC(=O)O)C(=O)O)[C@H](C[C@@H](C)C[C@H](O)CCCC[C@@H](O)C[C@H](O)[C@H](C)N)OC(=O)C[C@@H](CC(=O)O)C(=O)O`, the binding entry in test [1], in test [2], in test [3], in test [4] and in test [5] was “yes” in each case. Besides, in test [6], the KD (usually the constant that tells how readily two partners part at equilibrium) is reported as 100 ± 30 nM.

These data come from publication PMC3100853 (2010).
